# Experiments:
# [1] = test system: Calcium Channel L-Type, Benzothiazepine; assay: Lead Profiling Screen – Eurofins Panlabs; assay type: binding, rat
# [2] = Binding in brain homogenate from rat (equilibrium dialysis); assay type: in vitro ADME
# Procedure: Binding in brain homogenate from rat.
# Determination of fraction unbound (f u) in brain homogenate from rat was conducted using the same methodology and procedure than described for plasma protein binding assay with the following modifications: 1) a final compound concentration of 1 μM was used, 2) naïve rat brains were homogenized in DPBS (1:3 composition of brain: DPBS, w/w) using a Mini-Bead Beater™ machine in order to obtain […]
# The diluted fraction unbound (f u2) in brain was calculated as (analyte to IS MS peak area ratio from Trans-buffer side) / (analyte to IS MS peak area ratio from Cis-brain homogenate side). Undiluted fraction unbound for the brain was calculated using the following equation: […]
# Mean values for each species were calculated from 3 replicates. […]
# [3] = target: Sigma σ1 (Homo sapiens, UniProt Q99720); assay: Lead Profiling Screen – Eurofins Panlabs; assay type: binding; conditions: read-out: % inh at 10 μM
# Chain of Sigma σ1 (Q99720 whole entry): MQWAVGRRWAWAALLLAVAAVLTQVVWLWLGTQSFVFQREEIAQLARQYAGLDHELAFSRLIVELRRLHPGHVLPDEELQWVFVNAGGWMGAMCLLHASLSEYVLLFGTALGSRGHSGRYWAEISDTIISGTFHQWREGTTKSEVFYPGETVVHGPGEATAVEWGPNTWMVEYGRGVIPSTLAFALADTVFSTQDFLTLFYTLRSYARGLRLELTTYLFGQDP
# [4] = test system: Phorbol Ester; assay: Lead Profiling Screen – Eurofins Panlabs; assay type: binding, mouse
# [5] = Intrinsic clearance in rat liver microsomes; assay type: in vitro ADME
# Procedure: Intrinsic Clearance in Rat and Human Liver Microsomes
# The in vitro intrinsic clearance (CL int) was investigated in commercially obtained hepatic microsomes from rat and human donors using the substrate depletion (i.e., loss-of-parent vs. time, or t 1/2 method) approach with analyte detection via liquid chromatography-tandem mass spectrometry (LC-MS/MS). For each species, mean %parent remaining values at each time point were calculated from replicates raw data (analyte:IS peak area ratios) and used to determine in vitro t 1/2 and CLint.
# Experiments were carried out using a robot-assisted (TECAN model Evo 200). Compound was incubated (1 µM final concentration) in buffer (100 mM potassium phosphate pH 7.4 with 3 mM MgCl2) containing hepatic microsomes (0.5 mg/mL final concentration) from multiple species, discretely, at 37 °C under constant orbital shaking. After 5 minutes (pre-incubation), reactions were initiated by addition of nicotinamide adenine dinucleotide phosphate (NADPH, 1 mM final concentration). At selected time intervals (0, 3, 7, 15, 25, and 45 minutes) post-addition of NADPH, aliquots (50 µL) were taken and placed into a 96-shallow-well plate containing ice cold acetonitrile (150 µL) with carbamazepine (IS, 50 nM). The plates were then centrifuged (3000 rcf at 4 °C) for 10 minutes. The supernatants were transferred to a new 96-shallow-well daughter plate and diluted (1:1 v/v) with water (Milli-Q filtered). The plates were then sealed in preparation for LC-MS/MS analysis (see below).
# Raw LC-MS/MS peak area data generated from the assay samples were used to construct natural log-transformed %parent remaining vs. time plots (using t = 0 minute post-NADPH addition sample data as starting point set to 100%). In vitro compound half-life (t 1/2) values were obtained using the following […]
# k is the slope from linear regression analysis of the natural log-transformed data (using means from Where all replicates at each time point). Resulting t 1/2 values were then used to calculate hepatic CLint values according to the following equation and with the use of species-specific scale-up factors for liver weight (grams) per total body weight (kg): […]
# CLint = in vitro t1/2 x 0.5 mg microsomes x 1 gram liver x kg body wt aScale-up factors used are 45 (rat) and 20 (human).2
# Predicted hepatic clearance (CLhep) was calculated using the following equation: […]
# Qh represents hepatic blood flow (mL/min/kg): 21 for human, 70 for rat, and 90 for mouse.
# Prepared samples were injected (10 µL each) onto an AB Sciex Triple Quad 4500 mass spectrometer system with an Agilent 1260 Infinity II pump and autosampler. Mass spectrometer conditions are described in Table S1. Quantitation of compounds was performed via AB Sciex Multiquant software using the raw analyte:IS peak area ratios. The typical detection range was 0.5 ng/mL to ≥ 5,000 ng/mL utilizing a quadratic equation regression with 1/x2 weighting. […]
# Table S1. LC-MS/MS Conditions*
# Mobile phase A 0.5% Formic Acid in Water
# Mobile phase B 0.5% Formic Acid in Acetonitrile
# Gradient Time % Mobile Phase B
# [6] = test system: Nicotinic Acetylcholine; assay: Lead Profiling Screen – Eurofins Panlabs; assay type: binding, human
# [7] = test system: cardiac ion channels; assay: Charles River ChanTest Cardiac Channel Panel (patch clamp), whole panel; assay type: cell-based, human; conditions: 10 μM
# Procedure: page 17: Table S3. Cardiac Ion Channel Panel - Charles River Laboratories for VU6016235 Ion Channel Concentration Mean % Standard Standard n (μM) Inhibition Deviation Error hCav1.2 10 13.9 8.9 5.1 3 hCav3.2 10 6.7 2.7 1.4 4 hHCN2 10 2.6 1.9 1.1 3 hERG 10 10.9 0.9 0.4 4 hKv1.5 10 1.3 1.8 0.9 4 […] 10 4.1 5.6 2.8 4 hKv1.3 10 9 2.9 1.7 3 hNav1.5 (Tonic) 10 5.8 0.6 0.4 3 […] (Phasic) The in vitro effects of VU6016235 were evaluated at room temperature using the QPatch HT® (Sophion Bioscience A/S, Denmark), an automatic parallel patch clamp system. VU6016235 was evaluated at a concentration of 10 μM and tested in at least 3 cells (n ≥ 3). […] Next, rats were injected subcutaneously with vehicle or a dose of 0.75 mg/kg amphetamine and then monitored for an additional 60 min. Changes in locomotor activity were recorded for a total of 120 min. Locomotor data were expressed as the number of photobeam breaks/5 min intervals across the 120-min test session or as the total ambulation, calculated as sum of photobeam beam breaks from the time of amphetamine administration (60 min) until the end of the study (120 min). Time course data were analyzed by two-way ANOVA with main effects of treatment and time; changes in total ambulation were analyzed by one-way ANOVA followed by Dunnett's post hoc test (GraphPad Prism 7 [GraphPad Software, San Diego, CA]). […]
# [8] = target: T1, GABAB1A (Homo sapiens, UniProt Q9UBS5); assay: Lead Profiling Screen – Eurofins Panlabs; assay type: binding; conditions: read-out: % inh at 10 μM
# T1 construct: Eurofins Panlabs (contract screen)
# T1 sequence (Q9UBS5 15-961 limits assumed): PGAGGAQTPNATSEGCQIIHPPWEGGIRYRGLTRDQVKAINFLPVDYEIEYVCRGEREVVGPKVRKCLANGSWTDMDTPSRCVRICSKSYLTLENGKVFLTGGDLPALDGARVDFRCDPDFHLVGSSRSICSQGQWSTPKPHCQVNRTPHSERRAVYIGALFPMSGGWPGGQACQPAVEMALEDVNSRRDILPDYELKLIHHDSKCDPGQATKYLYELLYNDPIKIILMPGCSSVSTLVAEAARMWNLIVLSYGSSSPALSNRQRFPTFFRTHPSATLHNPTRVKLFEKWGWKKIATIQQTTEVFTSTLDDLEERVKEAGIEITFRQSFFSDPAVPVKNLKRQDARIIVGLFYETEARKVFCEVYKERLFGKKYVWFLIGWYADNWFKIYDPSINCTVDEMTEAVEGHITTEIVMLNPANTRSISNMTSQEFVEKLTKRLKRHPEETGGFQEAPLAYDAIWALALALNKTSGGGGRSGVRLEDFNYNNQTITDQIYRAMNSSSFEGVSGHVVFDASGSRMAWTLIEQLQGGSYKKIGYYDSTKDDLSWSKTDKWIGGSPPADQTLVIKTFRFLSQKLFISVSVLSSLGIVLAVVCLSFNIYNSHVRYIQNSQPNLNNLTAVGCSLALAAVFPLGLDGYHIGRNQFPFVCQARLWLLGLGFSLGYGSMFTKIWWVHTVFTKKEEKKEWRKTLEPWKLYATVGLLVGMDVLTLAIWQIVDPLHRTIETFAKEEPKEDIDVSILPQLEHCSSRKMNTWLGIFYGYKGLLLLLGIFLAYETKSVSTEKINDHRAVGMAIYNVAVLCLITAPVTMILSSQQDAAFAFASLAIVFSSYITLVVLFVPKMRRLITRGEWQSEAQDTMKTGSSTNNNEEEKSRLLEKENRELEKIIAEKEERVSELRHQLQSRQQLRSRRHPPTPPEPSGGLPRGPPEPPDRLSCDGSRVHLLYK
# T1 sequence (O75899 42-941 partner): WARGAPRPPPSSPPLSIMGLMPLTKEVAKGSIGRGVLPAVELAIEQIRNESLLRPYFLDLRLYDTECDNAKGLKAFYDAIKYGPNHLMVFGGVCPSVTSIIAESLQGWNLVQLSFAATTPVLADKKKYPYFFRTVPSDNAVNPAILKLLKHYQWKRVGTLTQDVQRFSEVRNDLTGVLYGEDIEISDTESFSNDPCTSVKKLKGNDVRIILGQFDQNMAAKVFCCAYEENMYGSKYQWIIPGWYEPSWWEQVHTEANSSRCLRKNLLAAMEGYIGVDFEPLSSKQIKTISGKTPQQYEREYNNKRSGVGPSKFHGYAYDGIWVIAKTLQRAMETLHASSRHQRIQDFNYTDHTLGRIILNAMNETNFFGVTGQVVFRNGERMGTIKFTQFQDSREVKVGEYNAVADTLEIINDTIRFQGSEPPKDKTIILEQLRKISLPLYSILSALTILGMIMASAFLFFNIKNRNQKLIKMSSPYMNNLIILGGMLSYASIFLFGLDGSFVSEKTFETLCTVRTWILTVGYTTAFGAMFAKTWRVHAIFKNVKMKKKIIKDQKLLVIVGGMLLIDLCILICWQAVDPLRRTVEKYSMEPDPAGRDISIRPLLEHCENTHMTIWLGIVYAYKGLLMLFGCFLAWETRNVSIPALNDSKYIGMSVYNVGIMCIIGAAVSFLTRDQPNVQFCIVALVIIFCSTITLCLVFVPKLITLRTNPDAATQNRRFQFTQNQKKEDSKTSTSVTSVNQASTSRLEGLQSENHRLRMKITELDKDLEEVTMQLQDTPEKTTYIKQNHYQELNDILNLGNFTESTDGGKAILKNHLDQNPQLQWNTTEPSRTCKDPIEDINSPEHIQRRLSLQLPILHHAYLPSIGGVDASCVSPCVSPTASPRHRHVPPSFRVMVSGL
# [9] = target: T2, CYP 2D6 (Homo sapiens, UniProt P10635); assay: P450 inhibition in pooled human liver microsomes; assay type: in vitro ADME; conditions: pooled HLM, NADPH, CYP-specific probe substrates
# T2 construct: from tissue; host or cells: pooled human liver microsomes (according to the earlier reading)
# T2 sequence (P10635 whole entry): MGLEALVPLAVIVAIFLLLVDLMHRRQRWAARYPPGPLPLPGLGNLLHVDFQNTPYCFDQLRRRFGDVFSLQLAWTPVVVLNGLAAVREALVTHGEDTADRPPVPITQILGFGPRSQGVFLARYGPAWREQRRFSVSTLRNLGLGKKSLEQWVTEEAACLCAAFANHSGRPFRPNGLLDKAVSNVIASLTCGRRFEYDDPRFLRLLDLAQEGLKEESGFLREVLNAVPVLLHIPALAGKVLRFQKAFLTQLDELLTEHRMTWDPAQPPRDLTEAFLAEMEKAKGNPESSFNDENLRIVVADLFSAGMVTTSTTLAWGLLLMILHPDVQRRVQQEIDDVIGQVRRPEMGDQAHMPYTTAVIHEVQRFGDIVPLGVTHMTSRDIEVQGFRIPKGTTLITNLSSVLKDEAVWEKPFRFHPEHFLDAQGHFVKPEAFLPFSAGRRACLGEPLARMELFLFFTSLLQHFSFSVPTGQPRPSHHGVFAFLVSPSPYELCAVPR
compound,measurement,setting,value
Cc1nc(C)c2c(n1)sc1c(NCc3ccc(C(C)(C)O)cc3)nccc12 [22g],% inh at 10 μM,[1],6%
same,rat fbrain,"[2]; fraction unbound, equilibrium dialysis, rat brain homogenates",0.016
same,"fraction unbound at 6 h, 1 µM","[2]; rat, brain homogenate, in %, read-out: fu,brain (rat brain homogenate)",0.01 to 0.05
same,inhibition at 10 µM,[3],3%
same,% inh at 10 μM,[4],-1%
same,CLint scaled at 1 µM,"[5]; pH 7.4, rat liver microsomes",78 mL/min/kg
same,"CLhep, rat",[5]; predicted hepatic clearance from microsomal CLint,37 mL/min/kg
same,% inh at 10 μM,[6],-2%
same,"inhibition, all ion channels",[7],≤ 14%
same,inhibition at 10 µM,[8],6%
same,IC50,[9],> 30 µM

# Reference: PMC11487561 (ACS Chemical Neuroscience, 2024)
